Assay type in all cases: cell-based
For one assay, the target named is AeKir1 (Aedes aegypti, UniProt L0EQS9). In words: Whole-cell patch clamp electrophysiology of T-REx-HEK293-AeKir1 cells. Here is the method:
T-REx-HEK293-AeKir1 cells were voltage clamped in the whole-cell configuration of the patch clamp technique after overnight induction with tetracycline (1 µg/ml) essentially as described earlier. Briefly, patch electrodes were pulled from silanized 1.5 mm outer diameter borosilicate microhematocrit tubes using a Narishige PC-10 two-stage puller. Electrode resistance ranged from 3.5 to 5.5 MΩ when filled with the following intracellular solution (in mM): 135 KCl, 2 MgCl2, 1 EGTA, 10 HEPES free acid, 2 Na2ATP (Roche, Indianapolis, IN), pH 7.3, 275 mOsm. The standard bath solution contained (in mM): 135 NaCl, 5 KCl, 2 CaCl2, 1 MgCl2, 5 glucose, 10 HEPES free acid, pH 7.4, 290 mOsm. Whole-cell currents were recorded under voltage-clamp conditions using an Axopatch 200B amplifier (Molecular Devices, Sunnyvale, CA). Electrical connections to the amplifier were made using Ag/AgCl wires and 3 M KCl/agar bridges. Electrophysiological data were collected at 5 kHz and filtered at 1 kHz. Data acquisition and analysis were performed using pClamp 9.2 software (Axon Instruments). All recordings were made at room temperature (20–23°C).
In general terms: In patch-clamp work, channel activity is measured electrically.

The target of a further assay is T1, Kir2.3 (Homo sapiens, UniProt P48050).
T1 construct: expressed in transfected cells
T1 sequence (P48050 1-445): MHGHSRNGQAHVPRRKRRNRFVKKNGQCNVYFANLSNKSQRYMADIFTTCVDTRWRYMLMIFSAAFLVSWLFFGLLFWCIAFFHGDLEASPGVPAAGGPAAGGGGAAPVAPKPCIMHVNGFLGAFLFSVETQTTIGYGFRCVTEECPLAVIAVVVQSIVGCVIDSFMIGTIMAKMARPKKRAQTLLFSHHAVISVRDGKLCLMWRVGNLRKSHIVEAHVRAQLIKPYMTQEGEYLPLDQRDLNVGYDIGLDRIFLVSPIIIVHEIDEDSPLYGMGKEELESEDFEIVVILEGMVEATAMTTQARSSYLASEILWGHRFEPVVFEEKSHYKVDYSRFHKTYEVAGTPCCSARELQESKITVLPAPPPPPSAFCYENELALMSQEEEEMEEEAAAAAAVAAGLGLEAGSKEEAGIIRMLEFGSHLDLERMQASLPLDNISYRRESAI
Briefly: Tl+ flux selectivity assay, Kir2.3. Particulars: n = 2 independent experiments in triplicate, read-out: Inhibition of Tl+ flux (IC50). Here is the method:
[Worded in the source for another target; used here, by the source, with some conditions changed.] (§1) Tl^+ flux assays were performed essentially as described previously, [18], [19]. Briefly, stably transfected T-Rex-HEK-293 cells expressing AeKir1 channels were cultured overnight in 384-well plates (20,000 cells/20 µL/well black-walled, clear-bottomed BD PureCoat amine-coated plates (BD, Bedford, MA) with a plating media containing DMEM, 10% dialyzed FBS and 1 µg/mL tetracycline. The next day, the cell culture medium was replaced with a dye-loading solution containing assay buffer (Hanks Balanced Salt Solution with 20 mM HEPES, pH 7.3), 0.01% (w/v) Pluronic F-127 (Life Technologies, Carlsbad, CA), and 1.2 µM of the thallium-sensitive dye Thallos-AM (TEFlabs, Austin, TX). Following 1 hr incubation at room temperature, the dye-loading solution was washed from the plates and replaced with 20 µL/well of assay buffer. […] Tl^+ flux data were analyzed as previously described, [21], [22] using a combination of Excel (Microsoft Corp, Redmond, WA) with XLfit add-in (IDBS, Guildford, Surrey, UK) and OriginPro (OriginLab, Northampton, MA) software. […] The slope of the fluorescence increase beginning 5 s after Tl^+ addition and ending 15 s after Tl^+ addition was calculated.

The next assay deals with T2, Kir2.1 (Homo sapiens, UniProt P63252).
T2 construct: expressed in transfected cells
T2 sequence (P63252 1-427): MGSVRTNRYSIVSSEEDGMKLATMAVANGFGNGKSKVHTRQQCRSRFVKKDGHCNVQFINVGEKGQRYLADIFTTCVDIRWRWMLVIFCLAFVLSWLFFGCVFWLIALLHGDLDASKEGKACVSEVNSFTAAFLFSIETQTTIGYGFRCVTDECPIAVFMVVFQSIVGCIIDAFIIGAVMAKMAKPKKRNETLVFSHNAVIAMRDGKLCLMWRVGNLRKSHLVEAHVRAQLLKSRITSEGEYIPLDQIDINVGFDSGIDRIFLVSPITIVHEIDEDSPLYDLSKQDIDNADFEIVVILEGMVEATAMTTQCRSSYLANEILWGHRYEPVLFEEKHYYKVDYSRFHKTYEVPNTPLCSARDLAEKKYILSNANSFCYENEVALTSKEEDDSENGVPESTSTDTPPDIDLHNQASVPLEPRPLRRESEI
In words: Tl+ flux selectivity assay, Kir2.1. Particulars: n = 2 independent experiments in triplicate, read-out: Inhibition of Tl+ flux (IC50). Here is the method:
[Worded in the source for another target; used here, by the source, with some conditions changed.] as §1

We go through one molecule from PMC4222822, “Discovery and Characterization of a Potent and Selective Inhibitor of Aedes aegypti Inward Rectifier Potassium Channels” (PLoS ONE, 2014).

SMILES strings stand for the structures.

AeKir1, sequence (L0EQS9 entry or part of it): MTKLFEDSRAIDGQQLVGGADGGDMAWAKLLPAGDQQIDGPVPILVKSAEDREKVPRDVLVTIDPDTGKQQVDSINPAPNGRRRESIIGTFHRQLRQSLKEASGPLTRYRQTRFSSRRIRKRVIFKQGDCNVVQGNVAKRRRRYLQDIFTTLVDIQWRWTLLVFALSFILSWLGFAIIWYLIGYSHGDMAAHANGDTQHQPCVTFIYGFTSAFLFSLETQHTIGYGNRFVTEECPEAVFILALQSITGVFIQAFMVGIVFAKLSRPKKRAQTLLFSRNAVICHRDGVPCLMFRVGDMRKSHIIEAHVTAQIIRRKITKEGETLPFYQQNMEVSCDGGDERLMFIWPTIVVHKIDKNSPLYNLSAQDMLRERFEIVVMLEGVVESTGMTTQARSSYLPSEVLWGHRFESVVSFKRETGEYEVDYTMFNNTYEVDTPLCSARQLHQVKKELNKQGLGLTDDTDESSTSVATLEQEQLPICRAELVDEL

Turning to `CCC(=O)N1c2ccc(S(=O)(=O)Nc3cccc(OC)c3)cc2CC1C` (stereo not shown) [VU625, N-(3-methoxyphenyl)-2-methyl-1-propionylindoline-5-sulfonamide], the “Hill coefficient (nH)” value at AeKir1 (95% CI: 0.8–1.3) is reported as 1.02. In addition, the IC50 (commonly the concentration that inhibits the measured activity by half) at AeKir1 (T-REx-HEK293 cells, 95% CI: 75.4–124.2 nM, n = 4–6) is 0.0968 µM; on Kir2.3, more than 30 µM; on Kir2.1, more than 30 µM.
